Assay results as given in PubChem BioAssay (NCI).
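Each compound was tested at five concentrations against cells in 96-well plates for 48 hours. TGI marks complete inhibition of growth.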

How the values were obtained:
Assay in all cases: DTP human tumour cell line panel, 48 h
[1] = tested on: K-562 leukemia
[2] = tested on: OVCAR-4 ovarian
[3] = tested on: RXF 393 renal
[4] = tested on: SNB-75 CNS
[5] = tested on: TK-10 renal
[6] = tested on: UO-31 renal
[7] = tested on: MALME-3M melanoma
[8] = tested on: OVCAR-5 ovarian
[9] = tested on: M14 melanoma
[10] = tested on: SK-MEL-5 melanoma
[11] = tested on: HL-60(TB) leukemia
[12] = tested on: UACC-257 melanoma
[13] = tested on: OVCAR-8 ovarian
[14] = tested on: SR leukemia
[15] = tested on: COLO 205 colon
[16] = tested on: SF-295 CNS
[17] = tested on: HOP-92 NSCLC
[18] = tested on: SK-MEL-28 melanoma
[19] = tested on: NCI/ADR-RES ovarian
[20] = tested on: HS 578T breast

SMILES	TGI [1] [µM]	TGI [2] [µM]	TGI [3] [µM]	TGI [4] [µM]	TGI [5] [µM]	TGI [6] [µM]	TGI [7] [µM]	TGI [8] [µM]	TGI [9] [µM]	TGI [10] [µM]	TGI [11] [µM]	TGI [12] [µM]	TGI [13] [µM]	TGI [14] [µM]	TGI [15] [µM]	TGI [16] [µM]	TGI [17] [µM]	TGI [18] [µM]	TGI [19] [µM]	TGI [20] [µM]
COc1ccc(/C=C2\SC(c3ccc(OC)cc3)N(NC(=O)Cc3ccccc3)C2=O)cc1 (stereo not drawn)	> 100	> 100	> 100	> 100	> 100	> 100	> 100	> 100	> 100	> 100	> 100	> 100	> 100	> 100	> 100	> 100	> 100	> 100		
CC(C)=C[C@@H]1C[C@H](C)c2c(O)cc(C)c3c2C1=C(C)C(=O)C3=O	40.1	23.4		31.4	45.9		29.4	62.2	27	26.5	44.4	37.5	35.2		32.6	30.4	26.9	29.8	49.6	41.8
CCCc1c(C(=O)OCC)[nH]c(-c2ccc(-c3[nH]c(C(=O)OCC)c(CCC)c3C(=O)OCC)o2)c1C(=O)OCC	> 100	> 100	> 100	> 100	> 100	> 100	> 100	> 100	> 100	> 100	> 100	> 100	> 100	> 100	> 100	> 100	> 100	> 100		
NNc1ccccc1Cl	> 100	> 100	> 100	> 100	> 100	> 100	> 100	> 100	> 100	> 100	> 100	> 100	> 100		> 100	> 100	> 100	> 100	> 100	> 100
Cc1ccc2c(c1)SC(c1cc3c(cc1Br)OCO3)S2 (stereo not drawn)	> 31.6	> 31.6	> 31.6	6.73	> 31.6	> 31.6	> 31.6	> 31.6	> 31.6	> 31.6	> 31.6	> 31.6	> 31.6	> 31.6	> 31.6	> 31.6	> 31.6	> 31.6		
O=C(Nc1nnc(-c2c(Cl)c(Cl)c(Cl)c(Cl)c2-c2nc3cc(C(=O)c4ccccc4)ccc3[nH]2)o1)c1ccccc1	> 100	95.1	39.1	41.4	50.7	> 100		55.7	34.4	18.5	65.3	85.7	> 100	20.9	24.5	24.3	44.5	45.4	33.3	
